Laboratory results as given in article PMC4863635, “Radicicol-Mediated Inhibition of Topoisomerase VIB-VIA Activity of the Human Malaria Parasite Plasmodium falciparum” (mSphere, 2016).

Columns and labels:
[1] = target: T1, PfTopoVIB (measured as PfTopoVIB-VIA complex) (Plasmodium falciparum, UniProt Q8I5N7+Q8ID53); assay: kDNA decatenation gel assay with yeast cell extract expressing PfTopoVIB-VIA; type: biochemical
T1 construct: gene PF3D7_1365600; full-length Myc-tagged PfTopoVIB co-expressed with Flag-tagged PfTopoVIA in S. cerevisiae, cell-free extract; with PfTopoVIA (PF3D7_1217100.1)

[2] = target: T2, PfTopoVIB (topoisomerase VIB subunit of PfTopoVI) (Plasmodium falciparum, UniProt Q8ID53); assay: as above; type: biochemical
T2 construct: gene PF3D7_1365600; full-length Myc-tagged PfTopoVIB co-expressed with Flag-tagged PfTopoVIA in S. cerevisiae, cell-free extract; with PfTopoVIA (PF3D7_1217100.1)
T2 sequence (Q8ID53 1-561): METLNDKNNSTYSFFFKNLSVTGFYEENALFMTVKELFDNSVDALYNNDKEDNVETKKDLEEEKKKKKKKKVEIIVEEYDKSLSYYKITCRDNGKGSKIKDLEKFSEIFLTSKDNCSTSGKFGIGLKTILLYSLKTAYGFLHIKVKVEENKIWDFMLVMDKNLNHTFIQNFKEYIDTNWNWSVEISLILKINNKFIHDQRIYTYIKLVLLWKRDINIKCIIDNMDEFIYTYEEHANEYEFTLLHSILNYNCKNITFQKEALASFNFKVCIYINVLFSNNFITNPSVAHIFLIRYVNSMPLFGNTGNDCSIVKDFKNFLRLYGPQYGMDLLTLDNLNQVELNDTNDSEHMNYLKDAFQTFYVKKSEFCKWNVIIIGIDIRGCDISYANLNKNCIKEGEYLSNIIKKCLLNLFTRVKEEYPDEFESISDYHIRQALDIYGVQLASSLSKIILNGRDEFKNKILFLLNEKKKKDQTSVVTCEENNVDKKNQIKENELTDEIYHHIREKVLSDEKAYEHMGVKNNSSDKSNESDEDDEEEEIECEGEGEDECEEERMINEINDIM
T2 sequence (Q8I5N7 1-327 partner): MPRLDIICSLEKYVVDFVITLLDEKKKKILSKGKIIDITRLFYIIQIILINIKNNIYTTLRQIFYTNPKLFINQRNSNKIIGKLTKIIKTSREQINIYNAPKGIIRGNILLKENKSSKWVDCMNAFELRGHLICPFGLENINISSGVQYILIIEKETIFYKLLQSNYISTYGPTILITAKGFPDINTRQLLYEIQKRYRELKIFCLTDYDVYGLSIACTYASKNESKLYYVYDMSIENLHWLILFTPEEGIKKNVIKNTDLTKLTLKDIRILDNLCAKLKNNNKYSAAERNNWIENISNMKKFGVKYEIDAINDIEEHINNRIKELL

SMILES | inhibition at 10 µM [1] [%] | IC50 [2] [µM]
COc1cc([C@@H]2c3cc4c(cc3[C@@H](O[C@@H]3O[C@@H]5CO[C@@H](C)O[C@H]5[C@H](O)[C@H]3O)[C@H]3COC(=O)[C@H]23)OCO4)cc(OC)c1O [etoposide] | > 80 | 
C[C@@H]1C[C@H]2O[C@@H]2/C=C\C=C\C(=O)Cc2c(Cl)c(O)cc(O)c2C(=O)O1 [radicicol] |  | ~80
